Source: article PMC8156206, “Novel N,N′-Disubstituted Selenoureas as Potential Antioxidant and Cytotoxic Agents” (Antioxidants, 2021)
Read-outs that look alike come from different tables or passages of the source.

Assays:
[1] = system: HTB-54 cells (lung adenocarcinoma); design: method as in PMID 22397496; details: reference drug, literature value; cited from earlier work
[2] = system: MCF-7 cells (breast adenocarcinoma); details: cited from earlier work
HCT-116 cells (colon) = assay: MTT cell viability assay, HCT-116; type: cell-based; details: 48 h, MTT, mean ± SD, read-out: IC50 HCT-116 (colon)
Description: (§1) Cell lines were purchased from the American Type Culture Collection (ATCC). MCF-7, HTB-54, BEAS-2B and 184B5 cell lines were grown in RPMI 1640 medium (Gibco) supplemented with 10% fetal bovine serum (FBS; Gibco), 100 units/mL penicillin, and […] streptomycin (Gibco). HT-29 and HCT-116 cell lines was cultured in McCoy’s 5A (Gibco), 10% FBS, 100 units/mL penicillin, and 100 μg/mL streptomycin. Cells were maintained at 37 °C and 5% CO2. Culture medium was replaced every three days.
(§2) A cell viability assay of each compound was carried out using an MTT assay. Each selenourea was dissolved in dimethyl sulfoxide (DMSO) at a concentration of 0.01 M. Serial dilutions were prepared with non-supplemented culture medium. Cytotoxic activity of each selenourea was determined at two different concentrations (10 and 50 µM) in MCF-7, HTB-54, and HT-29 cells. In addition, selected compounds were tested at seven different concentrations (0.1, 1, 5, 10, 25, 50, 100 µM) on MCF-7, HT-29, HCT-116, HTB-54, 184B5, and BEAS-2B cells. The number of passages before defrosting the cells was 3, and they were kept under culture up to a maximum of 15.
(§3) Briefly, 1 × 10^4 cells/well were grown in 96-well plates for 24 h. Then, these cells were incubated with either DMSO (negative control) at 5 µM or a different concentration of each tested selenourea for 48 h. A volume of 20 µL of MTT was added 150 min before the termination point to measure cellular viability. After this time, culture medium was removed. The resultant formazan crystals were dissolved in 50 µL of DMSO, and absorbance was measured at 570 nm. Results are expressed as IC50, the half maximal inhibitory concentration. This value was calculated using GraphPad Prism 7 software by nonlinear curve fitting. Furthermore, the selectivity index (SI) was calculated as the ratio of the IC50 values determined for the non-malignant and the tumoral cells (IC50 (184B5)/IC50 (MCF-7) or (IC50 (BEAS-2B)/IC50 (HTB-54). Data were obtained from at least three independent experiments performed in triplicates.

[3] = system: HT-29 cells (colon carcinoma); design: method as in PMID 32801055; details: reference drug, literature value; cited from earlier work
[4] = system: MCF-7 cells (breast adenocarcinoma); assay: MTT cell viability assay, MCF-7; type: cell-based, human; details: for IC50 / viability at 10 µM / viability at 50 µM: Homo sapiens, MCF7, 48 h, MTT; for IC50: mean ± SD, read-out: IC50 MCF-7 (breast); for viability at 10 µM: MCF-7, 10 µM; for viability at 10 µM / viability at 50 µM: read-out: cell viability, percentage of live cells; for viability at 50 µM: MCF-7, 50 µM; for SI (selectivity index) breast: IC50 (184B5)/IC50 (MCF-7)
Description: as §1, §2, §3
(§4) The cytotoxic effects of synthesized compounds were evaluated against three human cancer cell lines: breast adenocarcinoma (MCF-7), lung adenocarcinoma (HTB-54), and colon carcinoma (HT-29), using a 3-[4,5-dimethylthiazol-2-yl]-2,5-diphenyltetrazolium bromide (MTT) assay. Firstly, the compounds were screened at two doses (50 and 10 µM) and after 48 h of treatment. The results are summarized in Figure 4 and are presented as percentages of growth inhibition related to control.

[5] = system: BEAS-2B cells (lung non-malignant derived cell line); assay: MTT cell viability assay, BEAS-2B; type: cell-based; details: Homo sapiens, 48 h, mean ± SD
Description: as §1, §2, §3

[6] = DPPH radical scavenging assay; details: 0.03 mg/mL, time-point 0 min
Description: (§5) From all the methods available for the prediction of the antioxidant properties, DPPH^● and ABTS^●+ assays were chosen according to their simplicity, accessibility, and effectiveness for a fast prediction of radical scavenging activities in vitro. The radical scavenging capacity of the novel selenoureas was determined by DPPH^● and ABTS^●^+ assays. Measurements were recorded on a BioTeck PowerWave XS spectrophotometer (BioTeck Instruments, Winooski (VT), USA) and the data were collected using KCJunior software (BioTeck Instruments, Winooski (VT), USA).
A DPPH assay was performed, as described by Svinyarov. Stock solutions of 1 mg/mL were initially prepared for each selenourea in methanol and this solution was used for the preparation of the different concentrations employed in the assay. Ascorbic acid (Asc) was used as positive control due to the literature reports that this derivative is a potent antioxidant and radical scavenger. A volume of 100 µL from a previously prepared stock solution (preserved in dark and daily prepared) of DPPH (100 µM) in methanol were added to 100 µL of the methanolic selenoureas solutions prepared previously, and the antioxidant activity these compounds was assessed by its ability to decolorize DPPH● radical (purple color in methanol) to DPPHH (colorless). Thus, radical scavenging activity was estimated by the decrease in the absorbance at 517 nm. Determinations were recorded at different time-points. All the measurements were carried out in triplicate. Results are expressed as the percentage of the radicals scavenged, calculated using the following formula:(1) % DPPH radical scavenging=Acontrol − Asample/Acontrol × 100 where Acontrol refers to the absorbance of the negative control and Asample refers to the absorbance of the tested compounds. Results are expressed as percentage of DPPH radical scavenging ± SD.
In order to determine the radical scavenging of these newly synthesized selenourea derivatives, the DPPH assay was firstly employed. Measurements were performed at four different concentrations ranging from 0.0003 to 0.03 mg/mL, and collected at time-points between 0 min and 120 min (Figures S81–S100). Results are presented as the percentage of inhibition for DPPH radical scavenging activity.

[7] = system: MCF-7, HTB-54, HT-29 and HCT-116 cancer cell lines; assay: MTT assay, panel of four cancer cell lines; type: cell-based; details: MCF-7, HTB-54, HT-29, HCT-116, read-out: IC50 against the four cancer cell lines tested (all the cell lines)
Description: as §2, §3
Those derivatives that reduced the growth of the cell lines below 50% at 10 µM in at least one cell line were selected for being evaluated at five concentrations between […] and 100 µM. Ten compounds (1d, 1e, 2a, 2d, 3a, 6a, 6b, 6c, 6d, and 6e) passed this threshold and four of them (1e, 6c, 6d and 6e) in all three cancer cell lines. The data are expressed as IC50 (mean ± SD) in a panel of four cancer cell lines (MCF-7, HTB-54, HT-29, and HCT-116), and are shown in Table 1. Cisplatin was used as a standard drug. […] Additionally, reported IC50 values of a well-known antitumor selenocompound, i.e., sodium selenite (Na2SeO3), were used as reference for comparision with the selected selenoureas.

[8] = system: HT-29 cells (colon carcinoma); assay: MTT cell viability assay, HT-29; type: cell-based; details: Homo sapiens, 48 h, MTT; for IC50: HT-29, mean ± SD, read-out: IC50 HT-29 (colon); for viability at 10 µM: HT-29, 10 µM; for viability at 10 µM / viability at 50 µM: read-out: cell viability, percentage of live cells; for viability at 50 µM: HT-29, 50 µM
Description: as §1, §2, §3, §4

[9] = system: 184B5 cells (breast non-malignant derived cell line); assay: MTT cell viability assay, 184B5; type: cell-based; details: Homo sapiens, 184B5; 48 h, MTT, mean ± SD; read-out: IC50 184B5 (breast, non-malignant)
Description: as §1, §2, §3

[10] = system: HTB-54 cells (lung adenocarcinoma); assay: MTT cell viability assay, HTB-54; type: cell-based, human; details: for IC50 / viability at 10 µM / viability at 50 µM: Homo sapiens, 48 h, MTT; for IC50: HTB-54, mean ± SD, read-out: IC50 HTB-54 (lung); for viability at 10 µM: HTB-54, 10 µM; for viability at 10 µM / viability at 50 µM: read-out: cell viability, percentage of live cells; for viability at 50 µM: HTB-54, 50 µM; for SI (selectivity index) lung: IC50 (BEAS-2B)/IC50 (HTB-54)
Description: as §1, §2, §3, §4

[11] = ABTS radical scavenging assay; details: 0.003 mg/mL, 60 min
Description: as §5
As well as DPPH, ABTS radical scavenging assay is a colorimetric method. ABTS (2,2′-azino-bis(3-ethylbenzothiazoline-6-sulfonic acid) was dissolved in deionized water at 1 mg/mL and oxidized to ABTS^●+ with potassium persulfate (2.45 mM final concentration). This oxidation process is not instantaneous, and the reaction mixture was kept in the dark overnight at room temperature. After ABTS^●+ radical was generated, the ABTS^●+ solution was diluted with 50% ethanol until an absorbance of 0.70 ± 0.02 at 734 nm for measurements was achieved. Stock solution of 1 mg/mL in absolute ethanol was prepared for each selenourea, and different dilutions were prepared to reach the final concentration, when 20 µL of this solution were added to 180 µL of the diluted ABTS^●+. The absorbance at 734 nm was recorded using 50% ethanol as blank. Trolox and Asc were used as positive controls. All determinations were carried out in triplicate. Same time intervals as in the DPPH assay were also measured. The ability to scavenge ABTS^●+ was calculated using the following formula:(2) % ABTS radical scavenging=Acontrol − Asample/Acontrol × 100 where Acontrol refers to the absorbance of the negative control and Asample refers to the absorbance of the tested compounds. The results are expressed as percentage of ABTS radical scavenging ± SD.
In order to confirm the antioxidant activity of the selenoureas, we performed an additional ABTS (2,2′-azino-bis(3-ethylbenzothiazoline-6-sulfonic acid) radical scavenging assay. Following the results obtained in the DPPH assay, this experiment was performed at 0.03 and 0.003 mg/mL. Measurements were recorded after 0′, 6′ and 60′ of incubation with ABTS. For comparison purposes, Trolox and ascorbic acid were used as references. The remarkable results are summarized in Figure 3.

Compound	IC50 [4] [µM]	viability at 10 µM [4] [%]	viability at 50 µM [4] [%]	SI (selectivity index) breast [4]	IC50 [5] [µM]	DPPH radical scavenging kinetics [6]	IC50 [7] [µM]	IC50 [8] [µM]	viability at 10 µM [8] [%]	viability at 50 µM [8] [%]	IC50 [9] [µM]	IC50 [10] [µM]	viability at 10 µM [10] [%]	viability at 50 µM [10] [%]	SI (selectivity index) lung [10]	IC50 (HCT-116 cells (colon); Homo sapiens, HCT-116) [µM]	ABTS radical scavenging activity compared with Trolox [11]	melting point [°C]	also measured
N.N.[Cl][Pt][Cl] [Cisplatin]																			IC50 [1]: 13.7 ± 0.83 µM; IC50 ([2]; reference drug, literature value, read-out: IC50 MCF-7 (breast)): 15.2 ± 1.04 µM; IC50 (HCT-116 cells (colon)): 2.18 ± 1.58 µM; IC50 [3]: 14.2 ± 0.73 µM
N#Cc1ccc(NC(=[Se])NC23CC4CC(CC(C4)C2)C3)cc1 [Compound 6e, N´-Adamanty-N-(4-cyanophenyl)selenourea]	5.47 ± 3.91	44.4	5.7	1.41	2.36 ± 0.39	reaching the maximum activity at time-point 0′	< 10	4.18 ± 0.46	18.9	3.6	7.69 ± 0.31	6.09 ± 0.75	34	0.3	0.39	5.43 ± 0.86			
O=[Se](O)O [sodium selenite]																			IC50 ([2]; after 72 h of treatment, read-out: IC50 in MCF-7 cells): 17 µM
Cc1ccc(NC(=[Se])NC23CC4CC(CC(C4)C2)C3)cc1 [Compound 6b]	5.52 ± 1.61	40	9.2	2.21	7.56 ± 0.19		< 10	5.67 ± 4.67	51.4	46.8	12.2 ± 2.42	9.01 ± 2.6	44.2	26.1	0.83	6.29 ± 0.76	significant lower radical scavenging activity than Trolox	169	
Clc1ccc(NC(=[Se])NC23CC4CC(CC(C4)C2)C3)cc1 [Compound 6d, N´-adamantyl-N-(4-chlorophenyl)selenourea]	7.19 ± 1.12	36.6	17.2	2.22	7.59 ± 0.53		< 10	8.04 ± 2.17	45.9	23.7	16 ± 2.74	6.56 ± 0.99	22.9	4.4	1.16	6.95 ± 0.65	significant lower radical scavenging activity than Trolox	177	
N#Cc1ccc(NC(=[Se])NCc2ccco2)cc1 [Compound 1e]	9.96 ± 1.45	48.8	23.4	0.81	6.01 ± 0.94	reaching the maximum activity at time-point 0′	< 10	5.89 ± 1.32	36.2	28.5	8.09 ± 1.21	9.79 ± 0.07	35.7	9.3	0.61	9.14 ± 1.14		128	
